Measurements published in ChEMBL document CHEMBL5550145, “Synthesis and cytotoxicity evaluation of d- and l-sugar-containing mono- and bidesmosidic ursane-type saponins” (Bioorg Med Chem, 2024).

Legend:
[1] = Cytotoxicity against human WS1 cells assessed as inhibition of cell growth measured after 48 hrs by Hoechst 33258 staining based fluorescence assay; type: toxicity
A549 = assay: Cytotoxicity against human A549 cells assessed as inhibition of cell growth measured after 48 hrs by Hoechst 33258 staining based fluorescence assay; type: functional; conditions: A549, 48 h
DLD-1 = assay: Cytotoxicity against human DLD-1 cells assessed as inhibition of cell growth measured after 48 hrs by Hoechst 33258 staining based fluorescence assay; type: functional; conditions: DLD-1, 48 h

For `C=C(C)[C@@H]1CC[C@]2(CO[C@@H]3O[C@@H](C)[C@H](O)[C@@H](O)[C@H]3O)CC[C@]3(C)[C@H](CC[C@@H]4[C@@]5(C)CC[C@H](O[C@@H]6O[C@@H](C)[C@H](O)[C@@H](O)[C@H]6O)C(C)(C)[C@@H]5CC[C@]43C)[C@@H]12`, the IC50 at 48 h [1] was 1.42 µM and the IC50 (A549) was 1.07 µM.

Compound `C[C@H]1[C@H](C)CC[C@]2(CO[C@H]3OC[C@H](O)[C@H](O)[C@H]3O)CC[C@]3(C)C(=CC[C@@H]4[C@@]5(C)CC[C@H](O[C@@H]6OC[C@H](O)[C@H](O)[C@H]6O)C(C)(C)[C@@H]5CC[C@]43C)[C@H]12` has an IC50 at 48 h [1] of 37 µM, an IC50 (A549) of 8.9 µM and an IC50 (DLD-1) of 31 µM.

Compound `C[C@H]1[C@H](C)CC[C@]2(C(=O)O)CC[C@]3(C)C(=CC[C@@H]4[C@@]5(C)CC[C@H](O[C@@H]6OC[C@H](O)[C@@H](O)[C@H]6O)C(C)(C)[C@@H]5CC[C@]43C)[C@H]12` has an IC50 at 48 h [1] of 20 µM, an IC50 (A549) of 39 µM and an IC50 (DLD-1) of 29 µM.

In the case of `C[C@H]1[C@H](C)CC[C@]2(C(=O)O)CC[C@]3(C)C(=CC[C@@H]4[C@@]5(C)CC[C@H](O[C@@H]6O[C@H](C)[C@H](O)[C@H](O)[C@H]6O)C(C)(C)[C@@H]5CC[C@]43C)[C@H]12`, the IC50 at 48 h [1] is reported as 13.1 µM, the IC50 (A549) is reported as 7 µM and the IC50 (DLD-1) is reported as 15 µM.

`C[C@H]1[C@H](C)CC[C@]2(CO[C@@H]3O[C@H](C)[C@H](O)[C@H](O)[C@H]3O)CC[C@]3(C)C(=CC[C@@H]4[C@@]5(C)CC[C@H](O[C@@H]6O[C@H](C)[C@H](O)[C@H](O)[C@H]6O)C(C)(C)[C@@H]5CC[C@]43C)[C@H]12` gave an IC50 at 48 h [1] of 16 µM, an IC50 (A549) of 8.9 µM and an IC50 (DLD-1) of 12 µM.

For `C[C@H]1[C@H](C)CC[C@]2(C(=O)O)CC[C@]3(C)C(=CC[C@@H]4[C@@]5(C)CC[C@H](O[C@H]6O[C@H](C)[C@@H](O)[C@H](O)[C@@H]6O)C(C)(C)[C@@H]5CC[C@]43C)[C@H]12`, the IC50 at 48 h [1] was 77 µM, the IC50 (A549) was 65 µM and the IC50 (DLD-1) was 61 µM.

For `C[C@H]1[C@H](C)CC[C@]2(CO[C@H]3O[C@@H](C)[C@@H](O)[C@@H](O)[C@@H]3O)CC[C@]3(C)C(=CC[C@@H]4[C@@]5(C)CC[C@H](O[C@H]6O[C@@H](C)[C@@H](O)[C@@H](O)[C@@H]6O)C(C)(C)[C@@H]5CC[C@]43C)[C@H]12`, the IC50 at 48 h [1] was 62 µM, the IC50 (A549) was 104 µM and the IC50 (DLD-1) was 48 µM.

Compound `C[C@H]1[C@H](C)CC[C@]2(C(=O)O)CC[C@]3(C)C(=CC[C@@H]4[C@@]5(C)CC[C@H](O[C@H]6O[C@@H](C)[C@@H](O)[C@@H](O)[C@@H]6O)C(C)(C)[C@@H]5CC[C@]43C)[C@H]12` has an IC50 at 48 h [1] of 7.2 µM, an IC50 (A549) of 3.7 µM and an IC50 (DLD-1) of 15 µM.

For `C[C@H]1[C@H](C)CC[C@]2(C(=O)O)CC[C@]3(C)C(=CC[C@@H]4[C@@]5(C)CC[C@H](O[C@H]6OC[C@@H](O)[C@@H](O)[C@@H]6O)C(C)(C)[C@@H]5CC[C@]43C)[C@H]12`, the IC50 at 48 h [1] was 10 µM, the IC50 (A549) was 9 µM and the IC50 (DLD-1) was 7.9 µM.

`C[C@H]1[C@H](C)CC[C@]2(C(=O)O)CC[C@]3(C)C(=CC[C@@H]4[C@@]5(C)CC[C@H](O[C@@H]6OC[C@@H](O)[C@H](O)[C@H]6O)C(C)(C)[C@@H]5CC[C@]43C)[C@H]12` showed an IC50 at 48 h [1] of 9 µM, an IC50 (A549) of 7.4 µM and an IC50 (DLD-1) of 7 µM.

`C[C@H]1[C@H](C)CC[C@]2(CO[C@@H]3O[C@@H](C)[C@H](O)[C@@H](O)[C@H]3O)CC[C@]3(C)C(=CC[C@@H]4[C@@]5(C)CC[C@H](O[C@@H]6O[C@@H](C)[C@H](O)[C@@H](O)[C@H]6O)C(C)(C)[C@@H]5CC[C@]43C)[C@H]12` showed an IC50 at 48 h [1] of 14 µM, an IC50 (A549) of 4.5 µM and an IC50 (DLD-1) of 11 µM.

With `C[C@H]1[C@H](C)CC[C@]2(CO[C@H]3O[C@H](C)[C@@H](O)[C@H](O)[C@@H]3O)CC[C@]3(C)C(=CC[C@@H]4[C@@]5(C)CC[C@H](O[C@H]6O[C@H](C)[C@@H](O)[C@H](O)[C@@H]6O)C(C)(C)[C@@H]5CC[C@]43C)[C@H]12` the IC50 at 48 h [1] was greater than 200 µM, the IC50 (A549) was 104 µM and the IC50 (DLD-1) was 109 µM.

Work on `C[C@H]1[C@H](C)CC[C@]2(C(=O)O)CC[C@]3(C)C(=CC[C@@H]4[C@@]5(C)CC[C@H](O[C@H]6OC[C@H](O)[C@@H](O)[C@@H]6O)C(C)(C)[C@@H]5CC[C@]43C)[C@H]12` yielded an IC50 at 48 h [1] of 30 µM, an IC50 (A549) of 35 µM and an IC50 (DLD-1) of 36 µM.

`C[C@H]1[C@H](C)CC[C@]2(C(=O)O)CC[C@]3(C)C(=CC[C@@H]4[C@@]5(C)CC[C@H](O[C@@H]6O[C@@H](C)[C@H](O)[C@@H](O)[C@H]6O)C(C)(C)[C@@H]5CC[C@]43C)[C@H]12` gave an IC50 at 48 h [1] of 8.5 µM, an IC50 (A549) of 14 µM and an IC50 (DLD-1) of 11 µM.

With `C[C@H]1[C@H](C)CC[C@]2(C(=O)O)CC[C@]3(C)C(=CC[C@@H]4[C@@]5(C)CC[C@H](O[C@@H]6OC[C@H](O)[C@H](O)[C@H]6O)C(C)(C)[C@@H]5CC[C@]43C)[C@H]12` the IC50 at 48 h [1] was 5.9 µM, the IC50 (A549) was 3.5 µM and the IC50 (DLD-1) was 3.8 µM.

For `C[C@H]1[C@H](C)CC[C@]2(CO[C@@H]3OC[C@@H](O)[C@@H](O)[C@@H]3O)CC[C@]3(C)C(=CC[C@@H]4[C@@]5(C)CC[C@H](O[C@H]6OC[C@@H](O)[C@@H](O)[C@@H]6O)C(C)(C)[C@@H]5CC[C@]43C)[C@H]12`, the IC50 at 48 h [1] was 20 µM, the IC50 (A549) was 10 µM and the IC50 (DLD-1) was 16 µM.

With `C[C@H]1[C@H](C)CC[C@]2(C(=O)O)CC[C@]3(C)C(=CC[C@@H]4[C@@]5(C)CC[C@H](O[C@H]6OC[C@@H](O)[C@H](O)[C@@H]6O)C(C)(C)[C@@H]5CC[C@]43C)[C@H]12` the IC50 at 48 h [1] was 4.6 µM, the IC50 (A549) was 9 µM and the IC50 (DLD-1) was 6.4 µM.

In the case of `C[C@H]1[C@H](C)CC[C@]2(CO[C@H]3OC[C@@H](O)[C@H](O)[C@H]3O)CC[C@]3(C)C(=CC[C@@H]4[C@@]5(C)CC[C@H](O[C@@H]6OC[C@@H](O)[C@H](O)[C@H]6O)C(C)(C)[C@@H]5CC[C@]43C)[C@H]12`, the IC50 at 48 h [1] is reported as 20 µM, the IC50 (A549) is reported as 15 µM and the IC50 (DLD-1) is reported as 14.9 µM.

Work on `C[C@H]1[C@H](C)CC[C@]2(CO[C@H]3OC[C@H](O)[C@@H](O)[C@H]3O)CC[C@]3(C)C(=CC[C@@H]4[C@@]5(C)CC[C@H](O[C@@H]6OC[C@H](O)[C@@H](O)[C@H]6O)C(C)(C)[C@@H]5CC[C@]43C)[C@H]12` yielded an IC50 at 48 h [1] of 60 µM, an IC50 (A549) of 15 µM and an IC50 (DLD-1) of 57 µM.

Work on `C[C@H]1[C@H](C)CC[C@]2(CO[C@@H]3OC[C@H](O)[C@@H](O)[C@@H]3O)CC[C@]3(C)C(=CC[C@@H]4[C@@]5(C)CC[C@H](O[C@H]6OC[C@H](O)[C@@H](O)[C@@H]6O)C(C)(C)[C@@H]5CC[C@]43C)[C@H]12` yielded an IC50 at 48 h [1] greater than 200 µM, an IC50 (A549) of 9.8 µM and an IC50 (DLD-1) greater than 200 µM.

Work on `C[C@H]1[C@H](C)CC[C@]2(CO[C@@H]3OC[C@@H](O)[C@H](O)[C@@H]3O)CC[C@]3(C)C(=CC[C@@H]4[C@@]5(C)CC[C@H](O[C@H]6OC[C@@H](O)[C@H](O)[C@@H]6O)C(C)(C)[C@@H]5CC[C@]43C)[C@H]12` yielded an IC50 at 48 h [1] of 10 µM, an IC50 (A549) of 34 µM and an IC50 (DLD-1) of 38 µM.

For `COc1cc([C@@H]2c3cc4c(cc3[C@@H](O[C@@H]3O[C@@H]5CO[C@@H](C)O[C@H]5[C@H](O)[C@H]3O)[C@H]3COC(=O)[C@H]23)OCO4)cc(OC)c1O` [ETOPOSIDE], the IC50 at 48 h [1] was greater than 50 µM, the IC50 (A549) was 1.9 µM and the IC50 (DLD-1) was 5.1 µM.

`C[C@H]1[C@H](C)CC[C@]2(C(=O)O)CC[C@]3(C)C(=CC[C@@H]4[C@@]5(C)CC[C@H](O)C(C)(C)[C@@H]5CC[C@]43C)[C@H]12` [URSOLIC ACID] showed an IC50 at 48 h [1] of 13.1 µM, an IC50 (A549) of 16 µM and an IC50 (DLD-1) of 16 µM.

`C[C@H]1[C@H](C)CC[C@]2(CO)CC[C@]3(C)C(=CC[C@@H]4[C@@]5(C)CC[C@H](O)C(C)(C)[C@@H]5CC[C@]43C)[C@H]12` [UVAOL] showed an IC50 at 48 h [1] greater than 200 µM, an IC50 (A549) greater than 200 µM and an IC50 (DLD-1) greater than 200 µM.
